What all share (type): biochemical
In experiment [1] the target is T1, Ube1 (Homo sapiens, UniProt P22314).
T1 construct: gene UBA1
T1 sequence (P22314 2-1058): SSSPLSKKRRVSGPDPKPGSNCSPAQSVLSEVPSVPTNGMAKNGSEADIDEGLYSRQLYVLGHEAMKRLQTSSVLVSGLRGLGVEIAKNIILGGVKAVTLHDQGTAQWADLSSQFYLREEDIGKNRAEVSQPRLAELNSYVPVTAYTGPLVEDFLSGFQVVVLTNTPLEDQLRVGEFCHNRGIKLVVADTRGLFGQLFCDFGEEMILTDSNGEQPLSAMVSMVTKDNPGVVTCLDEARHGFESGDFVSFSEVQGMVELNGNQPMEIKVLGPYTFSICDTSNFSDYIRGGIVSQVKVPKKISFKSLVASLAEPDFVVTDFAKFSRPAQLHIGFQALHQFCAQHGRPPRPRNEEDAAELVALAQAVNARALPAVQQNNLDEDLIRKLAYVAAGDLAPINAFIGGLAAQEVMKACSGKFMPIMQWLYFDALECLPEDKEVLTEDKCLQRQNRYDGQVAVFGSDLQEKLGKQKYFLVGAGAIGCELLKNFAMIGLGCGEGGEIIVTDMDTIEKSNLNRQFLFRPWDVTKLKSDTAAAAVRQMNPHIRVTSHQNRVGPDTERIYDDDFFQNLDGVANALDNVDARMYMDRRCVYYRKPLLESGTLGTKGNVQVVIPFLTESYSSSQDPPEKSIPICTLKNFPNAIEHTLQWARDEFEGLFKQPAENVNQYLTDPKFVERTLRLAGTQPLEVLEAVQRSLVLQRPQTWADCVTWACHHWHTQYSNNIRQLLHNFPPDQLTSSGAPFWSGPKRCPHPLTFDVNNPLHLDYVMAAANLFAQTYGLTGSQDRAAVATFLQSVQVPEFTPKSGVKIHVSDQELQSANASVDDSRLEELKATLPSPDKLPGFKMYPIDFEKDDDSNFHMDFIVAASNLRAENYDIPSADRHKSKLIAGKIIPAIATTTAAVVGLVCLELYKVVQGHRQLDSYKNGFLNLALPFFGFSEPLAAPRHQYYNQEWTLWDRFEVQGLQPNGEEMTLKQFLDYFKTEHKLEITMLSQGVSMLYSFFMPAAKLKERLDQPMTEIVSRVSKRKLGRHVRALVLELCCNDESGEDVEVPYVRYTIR
The experiment in a line: Gel-based Ube1~Ub thioester assay with purified Ube1; also on-bead UPS-CONA with Ube1 alone (IC50 below […]).

In another experiment the target is T2, Ube2L3 (Homo sapiens, UniProt P68036).
T2 construct: eGFP-Ube2L3
Briefly: On-bead UPS-CONA, concentration-dependent inhibition on eGFP-Ube2L3.

Experiment [2] concerns the target T1, Ube1. The experiment in a line: Gel-based Ube1~Ub thioester assay and on-bead UPS-CONA with Ube1 alone.

T2 sequence (P68036 whole entry, one chain of several): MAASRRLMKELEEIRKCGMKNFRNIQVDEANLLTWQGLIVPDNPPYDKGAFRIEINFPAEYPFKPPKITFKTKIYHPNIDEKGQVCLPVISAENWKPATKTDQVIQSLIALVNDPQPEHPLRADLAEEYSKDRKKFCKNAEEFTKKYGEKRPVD

Consider `Cc1ccc(S(=O)(=O)/C=C/C#N)cc1` [BAY 11-7082], for which the figures for the 50% inhibitory concentration (IC50) against Ube1 [1] and against Ube2L3 were about 4.6 µM and 7.5 µM, respectively.

`CCc1ccc(/C=C/C(=O)Nc2ccc(C(C)=O)cc2)o1` [heclin]: the IC50 at Ube1 [2] was found to be 16 µM.
